Results taken from US8614247B2, “Methods for preventing, attenuating or treating pulmonary hypertension using a serotonin transporter inhibitor, and pharmaceutical compositions for the treatment thereof” (Institut National de la Sante et de la Recherche Medicale, priority 2003, dated 2013).

Experiments:
[1] = test system: mice in normoxia; assay: Physiological parameters during normoxia after treatment; format: in vivo, mice (C57BL6/J); settings: control mice 88±7 mmHg
[2] = test system: human pulmonary artery smooth muscle cells (PA-SMCs); assay: 5-HT-induced proliferation of human PA-SMCs ([3H]thymidine incorporation); format: cell-based; settings: cells in 0.2% FCS; for 5-HT-induced increase in [3H]thymidine incorporation (mitogenic response to 5-HT): drug at 10^−5 M, added before 5-HT
Description: Effect of 5-HT on the Proliferation of Human Pulmonary Artery Smooth Muscle Cells (PA-SMCs)
The methods used for the culture and the characterization of human PA-SMCs have been previously described (Eddahibi, Humbert et al. 2001). In brief, PA-SMCs were obtained from patients undergoing lung resection for cancer. They were seeded in 24-well plates at a density of 5×10^4 cells/well and allowed to adhere in DMEM supplemented with 15% fœtal calf serum (FCS). Cells were then subjected to 48 h of growth arrest in medium containing only 0.2% FCS before being incubated in DMEM supplemented with 0.2% FCS, 0.6 mM of ascorbic acid, 0.1 mM of iproniazid (a monoamine oxidase inhibitor), 0.6 μCi/mL of [^3H]thymidine, with or without 5-HT (10^−8 to 10^−6 M). […] Each of these drugs was added 20 min before 5-HT. After incubation for 24 hours, cells were washed twice with PBS, treated with ice-cold 10% trichloroacetic acid (1 ml/well), and dissolved in 0.1 N NaOH (0.5 ml/well). The incorporated radioactivity was counted and reported as cpm per well.

[3] = test system: mice exposed to acute hypoxia; assay: Hemodynamic response (RVSP) of normoxic mice to acute hypoxia; format: in vivo, mice (C57BL6/J); settings: two-day pretreatment; for pressure (RVSP) response to acute hypoxia: antagonists 2 mg/kg/day i.p., compared with vehicle-treated controls
Description: All experiments were performed using adult male mice (C57BL6/J, 8 weeks old) in conformity with the institutional guidelines that are in compliance with national and international laws and policies.
Mice were anaesthetized with ketamine (60 mg/kg, i.p) and xylazine (10 mg/kg, i.p). The trachea was cannulated, and the lungs were ventilated with room air at a tidal volume of 0.2 ml and a rate of 90 breaths per minute. Systemic arterial pressure was determined by catheterization of the carotid artery. A 26-gauge needle was then introduced percutaneously into the right ventricle via the subxyphoid approach. Right ventricular systolic pressure (RVSP) was measured using a Gould P10 EZ pressure transducer connected to pressure modules and a Gould TA 550 recorder. RVSP and heart rate were recorded first while the animal was ventilated with room air and then after 5 min of ventilation with hypoxic gas mixture (8% O2, 92% N2). […] If the heart rate fell below 300 bpm, measurements were excluded from analysis.
To investigate the effects of 5-HTT inhibition and/or 5-HT receptor blockade on acute hypoxic vasoconstriction, nine groups of mice (6-7 in each group) were studied. […] The last group consisted of control animals that received distilled water by gavage. The treatments were performed for two days and acute hypoxic vasoconstriction was measured on the following day one hour after the last treatment.

[4] = test system: rat lung SMC and lung fibroblasts; settings: cited from earlier work
[5] = test system: experimental hypoxic PH; settings: previous studies (Eddahibi, Raffestin et al. 1998); cited from earlier work
[6] = test system: mice exposed to chronic hypoxia; format: in vivo, mice (C57BL6/J); settings: for muscularization of distal pulmonary vessels: vs control mice under similar hypoxic conditions; for hypoxia-induced increase in RVSP: 2-week hypoxia (10% O2), daily treatment: citalopram, fluoxetine 10 mg/kg/day, ketanserin 2 mg/kg/day, GR127935 2 or 10 mg/kg/day, vs vehicle
Description: All experiments were performed using adult male mice (C57BL6/J, 8 weeks old) in conformity with the institutional guidelines that are in compliance with national and international laws and policies. […] To establish the hypoxic environment, the chamber was flushed with a mixture of room air and nitrogen, and the gas was recirculated. The chamber environment was monitored using an oxygen analyzer (Servomex OA150, Crowborough, England). Carbon dioxide was removed by soda lime granules, and excess humidity was prevented by cooling the recirculation circuit. The chamber temperature was maintained at 22-24° C. The chamber was opened every other day for 1 hour to clean the cages and replenish food and water supplies. Normoxic mice were kept in the same room, with the same light-dark cycle. […] After incision of the abdomen and diaphragm, a 26-gauge needle connected to a pressure transducer was inserted into the right ventricle, and RVSP was recorded immediately. Blood was then sampled for hematocrit determination. […] The right ventricle (RV) was dissected from the left ventricle+septum (LV+S), and these dissected samples were weighed. The lungs were fixed by intratracheal infusion of 4% aqueous buffered formalin at a pressure of 23 cm H2O. The entire specimen was immersed in a bath of the same fixative for one week. A midsagittal slice of the right lung including the apical, azygous and diaphragmatic lobes was processed for paraffin embedding. Sections (5 μm thick) were cut for light microscopy and stained with hematoxylin-phloxin-saffron and orcein-picroindigo-carmine. In each mouse, a total of 50-60 […] vessels accompanying either alveolar ducts or alveoli were analyzed by an observer blinded to treatment. Each vessel was categorized as nonmuscular (no evidence of any vessel wall muscularization), partially muscular (SMCs identifiable in less than three-fourths of the vessel circumference), or fully muscular (SMCs in more than three-fourths of the vessel circumference). […] The percentage of pulmonary vessels in each muscularization category was determined by dividing the number of vessels in that category by the total number counted in the same experimental group. […] The animals were treated once a day during the two-week exposure to hypoxia.

[7] = test system: rats; settings: Keegan et al. 2001; cited from earlier work
[8] = molecular target: 5-HTT (Rattus norvegicus, UniProt P31652); settings: cited from earlier work
Sequence of 5-HTT (P31652 whole entry): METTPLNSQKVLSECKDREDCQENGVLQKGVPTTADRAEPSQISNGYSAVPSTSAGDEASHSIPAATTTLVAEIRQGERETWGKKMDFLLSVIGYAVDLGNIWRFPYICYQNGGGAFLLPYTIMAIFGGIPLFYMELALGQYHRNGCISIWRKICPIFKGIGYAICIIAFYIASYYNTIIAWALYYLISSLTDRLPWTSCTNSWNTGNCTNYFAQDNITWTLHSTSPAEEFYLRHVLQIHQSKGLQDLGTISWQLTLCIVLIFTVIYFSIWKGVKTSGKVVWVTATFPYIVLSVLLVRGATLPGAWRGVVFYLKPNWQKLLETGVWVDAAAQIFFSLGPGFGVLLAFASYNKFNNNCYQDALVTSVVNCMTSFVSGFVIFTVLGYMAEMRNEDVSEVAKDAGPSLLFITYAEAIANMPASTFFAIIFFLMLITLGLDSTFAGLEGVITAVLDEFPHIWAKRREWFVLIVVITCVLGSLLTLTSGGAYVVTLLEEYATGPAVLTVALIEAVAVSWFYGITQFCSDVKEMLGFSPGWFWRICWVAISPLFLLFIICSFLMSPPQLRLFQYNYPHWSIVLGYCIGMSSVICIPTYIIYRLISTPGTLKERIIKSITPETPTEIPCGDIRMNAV

[9] = 2-week chronic hypoxia, daily treatment

Question: Which results are given for `O=C(c1ccc(F)cc1)C1CCN(CCn2c(=O)[nH]c3ccccc3c2=O)CC1` [ketanserin]?
Answer: Mean systemic arterial pressure [1]: 83±4 mmHg; 5-HT-induced increase in [3H]thymidine incorporation (mitogenic response to 5-HT) [2]: not affected; pressure (RVSP) response to acute hypoxia [3]: altered neither the response to acute hypoxia

Question: With `CCNC(C)Cc1cccc(C(F)(F)F)c1` (stereo not shown) [fenfluramine] as the compound, how does the mitogenic effect [4] read?
Answer: mitogenic

Question: With `CCN[C@@H](C)Cc1cccc(C(F)(F)F)c1` [dexfenfluramine] as the compound, how does the “development of experimental hypoxic PH” value [5] read?
Answer: not to attenuate

Question: Which “[3H]thymidine incorporation” value ([2]; 5-HT 10^−8-10^−6 M) does the source give for `NCCc1c[nH]c2ccc(O)cc12` [5-HT, 5-hydroxytryptamine] here?
Answer: concentration-dependent increase

Question: What does the source list for `COc1ccc(NC(=O)c2ccc(-c3ccc(-c4noc(C)n4)cc3C)cc2)cc1N1CCN(C)CC1` [GR127935, 2′-methyl-4′-(5-methyl-[1,2,4]oxadiazol-3-yl)-biphenyl-4-carboxylic acid [4-methoxy-3-(4-methyl-piperazine-1-yl)-phenyl]amide]?
Answer: Mean systemic arterial pressure [1]: 85±6 mmHg; 5-HT-induced increase in [3H]thymidine incorporation (mitogenic response to 5-HT) [2]: not affected; pressure (RVSP) response to acute hypoxia [3]: abolished the pressure response to hypoxia; muscularization of distal pulmonary vessels [6, 9]: did not affect; right ventricular hypertrophy (RV/LV+S ratio) ([6]; 2-week chronic hypoxia, daily treatment, vs hypoxic vehicle-treated mice (41.5±1.5%)): did not differ; hypoxia-induced increase in RVSP [6]: did not differ; protection against development of PH [7]: partial protection

Question: For `Cl.Cn1ccc2cc3c(cc21)CCN3C(=O)Nc1cccnc1` [SB 206553, N-3-pyridinyl-3,5-dihydro-5-methyl-benzo[1,2-b:4,5-b′]dipyrrole-1(2H)-carboxamide hydrochloride], which “5-HT-induced increase in [3H]thymidine incorporation (mitogenic response to 5-HT)” value [2] is on record?
Answer: not affected

Question: For `CN(C)CCCC1(c2ccc(F)cc2)OCc2cc(C#N)ccc21` (stereo not shown) [citalopram], which “Mean systemic arterial pressure” value [1] is on record?
Answer: 87±7 mmHg

Question: What does the source list for `CNCCC(Oc1ccc(C(F)(F)F)cc1)c1ccccc1` (stereo not shown) [fluoxetine]?
Answer: Mean systemic arterial pressure [1]: 86±5 mmHg; 5-HT-induced increase in [3H]thymidine incorporation (mitogenic response to 5-HT) [2]: completely abolished; baseline RVSP ([3]; 10 mg/kg/day by gavage, normoxic ventilation): did not alter; muscularization of distal pulmonary vessels [6, 9]: markedly attenuated; hypoxia-induced increase in RVSP [6]: significantly attenuated

Question: With `CC(C)(N)Cc1ccc(Cl)cc1` [chlorphentermine] as the compound, how does the 5-HTT substrate [8] read?
Answer: 5-HTT substrates

Question: For `NC1=NCC(c2ccccc2)O1` (stereo not shown) [a minorex], which 5-HTT substrate [8] is on record?
Answer: 5-HTT substrates
